# Results from patent US20100298141A1, “SUBSTITUTED PYRIDINE N-OXIDE HERBICIDES” (E. I. DU PONT DE NEMOURS AND COMPANY, priority 2007, published 2010).
# Tests used:
# common ragweed = experiment: Test F preemergence test; assay type: in vivo, Ambrosia elation; details: scale 0 to 100
# Method in brief: (§1)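 Compound in a non-phytotoxic solvent blend with surfactant is applied preemergence to planted seeds or postemergence to sugarcane plants. Plants and controls stay in the greenhouse 14 to 21 days before visual comparison.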
# large crabgrass = experiment: Test F preemergence test; assay type: in vivo, Digitaria sanguinalis; details: scale 0 to 100
# Method in brief: as §1
# johnsongrass = experiment: Test F preemergence test; assay type: in vivo, Sorghum halepense; details: scale 0 to 100
# Method in brief: as §1
# downy brome = experiment: Test C pre-/postemergence test; assay type: in vivo, Bromus tectorum
# Method in brief: (§2)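 Compounds in a non-phytotoxic solvent with surfactant applied preemergence to seeded pots and, at the same time, postemergence to plants 2–18 cm tall (1- to 4-leaf stage). Paddy tests: pots flooded to 3 cm, compound applied into the water, depth held throughout.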
# itchgrass = experiment: Test F preemergence test; assay type: in vivo, Rottboellia cochinchinensis; details: scale 0 to 100
# Method in brief: as §1
# green foxtail = experiment: Test F preemergence test; assay type: in vivo, Setaria viridis; details: scale 0 to 100
# Method in brief: as §1
# Italian ryegrass = experiment: Test F preemergence test; assay type: in vivo, Lolium multiflorum; details: scale 0 to 100
# Method in brief: as §1
# Russian thistle = experiment: Test C pre-/postemergence test; assay type: in vivo, Salsola kali
# Method in brief: as §2
# field bindweed = experiment: Test F preemergence test; assay type: in vivo, Convolvulus arvensis; details: scale 0 to 100
# Method in brief: as §1
# catchweed bedstraw = experiment: Test C pre-/postemergence test; assay type: in vivo, Galium aparine
# Method in brief: as §2
# crabgrass = experiment: Test A pre-/postemergence greenhouse test; assay type: in vivo, Digitaria sanguinalis; details: for Plant response rating, Crabgrass, Large: 0 to 100 scale where 0 is no effect and 100 is complete control; for Crabgrass, Large plant response rating: 0 to 100 scale
# Method in brief: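 Visual injury ratings, made relative to untreated controls roughly ten days after treatment, cover both preemergence and postemergence application. Compounds in a surfactant-containing non-phytotoxic solvent were sprayed onto the soil surface after sowing and, simultaneously, onto young plants at the one- to two-leaf stage.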
# Surinam grass = experiment: Test F preemergence test; assay type: in vivo, Brachiaria decumbens; details: scale 0 to 100
# Method in brief: as §1
# southern sandbur = experiment: Test F preemergence test; assay type: in vivo, Cenchrus echinatus; details: scale 0 to 100
# Method in brief: as §1
# goosegrass = experiment: Test F preemergence test; assay type: in vivo, Eleusine indica; details: scale 0 to 100
# Method in brief: as §1
# [1] = 62 g ai/ha, Preemergence, scale 0 to 100
# [2] = 125 g ai/ha, preemergence, scale 0 (no effect) to 100 (complete control)
# [3] = Preemergence, 31 g ai/ha, scale 0 to 100 (0 no effect, 100 complete control)
# [4] = preemergence, 250 g ai/ha, scale 0 (no effect) to 100 (complete control)
compound,measurement,setting,value
CC(Oc1c(C[S+]([O-])c2cccc[n+]2[O-])c(C(F)(F)F)nn1C)C(F)(F)F (stereo not shown) [Compound 77],"Plant response rating, Ragweed","common ragweed; 16 g ai/ha, preemergence",0
same,Ragweed plant response rating,"common ragweed; 125 g ai/ha, preemergence",98
same,"Plant response rating, Ragweed","common ragweed; Preemergence, 62 g ai/ha",65
same,"Plant response rating, Crabgrass, Large","large crabgrass; 16 g ai/ha, preemergence",0
same,"Crabgrass, Large plant response rating","large crabgrass; 62 g ai/ha, Preemergence",95
same,"Crabgrass, Large plant response rating","large crabgrass; 125 g ai/ha, preemergence",100
same,"Plant response rating, Crabgrass, Large","large crabgrass; Preemergence, 31 g ai/ha",85
same,"Plant response rating, Johnsongrass","johnsongrass; 16 g ai/ha, preemergence",0
same,Johnsongrass plant response rating,"johnsongrass; 62 g ai/ha, Preemergence",85
same,Johnsongrass plant response rating,"johnsongrass; 125 g ai/ha, preemergence",100
same,"Plant response rating, Johnsongrass","johnsongrass; Preemergence, 31 g ai/ha",75
same,"Bromegrass, Downy plant response rating",downy brome; [1],45
same,"Bromegrass, Downy plant response rating",downy brome; [2],70
same,"Plant response rating, Bromegrass, Downy",downy brome; [3],0
same,"Bromegrass, Downy plant response rating",downy brome; [4],100
same,"Plant response rating, Itchgrass","itchgrass; 16 g ai/ha, preemergence",0
same,Itchgrass plant response rating,"itchgrass; 62 g ai/ha, Preemergence",65
same,Itchgrass plant response rating,"itchgrass; 125 g ai/ha, preemergence",95
same,"Plant response rating, Itchgrass","itchgrass; Preemergence, 31 g ai/ha",35
same,"Plant response rating, Foxtail, Green","green foxtail; 16 g ai/ha, preemergence",25
same,"Foxtail, Green plant response rating","green foxtail; 62 g ai/ha, Preemergence",90
same,"Foxtail, Green plant response rating","green foxtail; 125 g ai/ha, preemergence",100
same,"Plant response rating, Foxtail, Green","green foxtail; Preemergence, 31 g ai/ha",65
same,"Plant response rating, Ryegrass, Italian","Italian ryegrass; 16 g ai/ha, preemergence",0
same,"Ryegrass, Italian plant response rating","Italian ryegrass; 125 g ai/ha, preemergence",100
same,"Plant response rating, Ryegrass, Italian","Italian ryegrass; Preemergence, 62 g ai/ha",90
same,"Plant response rating, Ryegrass, Italian","Italian ryegrass; Preemergence, 31 g ai/ha",40
same,Russian Thistle plant response rating,Russian thistle; [1],100
same,Russian Thistle plant response rating,Russian thistle; [2],100
same,"Plant response rating, Russian Thistle",Russian thistle; [3],100
same,Russian Thistle plant response rating,Russian thistle; [4],100
same,"Plant response rating, Field Bindweed","field bindweed; 16 g ai/ha, preemergence",0
same,Field Bindweed plant response rating,"field bindweed; 62 g ai/ha, Preemergence",35
same,Field Bindweed plant response rating,"field bindweed; 125 g ai/ha, preemergence",70
same,"Plant response rating, Field Bindweed","field bindweed; Preemergence, 31 g ai/ha",0
same,Galium plant response rating,catchweed bedstraw; [1],100
same,Galium plant response rating,catchweed bedstraw; [2],100
same,"Plant response rating, Galium",catchweed bedstraw; [3],100
same,Galium plant response rating,catchweed bedstraw; [4],100
same,"Plant response rating, Crabgrass, Large","crabgrass; Postemergence, 125 g ai/ha",60
same,"Crabgrass, Large plant response rating","crabgrass; Postemergence, 500 g ai/ha, 0 is no effect, 100 is complete control",90
same,"Crabgrass, Large plant response rating","crabgrass; Preemergence, 125 g ai/ha, 0 no effect, 100 complete control",80
same,"Plant response rating, Crabgrass, Large","crabgrass; Preemergence, 500 g ai/ha",100
same,"Plant response rating, Surinam Grass","Surinam grass; 16 g ai/ha, preemergence",0
same,Surinam Grass plant response rating,"Surinam grass; 125 g ai/ha, preemergence",98
same,"Plant response rating, Surinam Grass","Surinam grass; Preemergence, 62 g ai/ha",95
same,"Plant response rating, Surinam Grass","Surinam grass; Preemergence, 31 g ai/ha",70
same,"Plant response rating, Sandbur","southern sandbur; 16 g ai/ha, preemergence",0
same,Sandbur plant response rating,"southern sandbur; 125 g ai/ha, preemergence",100
same,"Plant response rating, Sandbur","southern sandbur; Preemergence, 62 g ai/ha",95
same,"Plant response rating, Sandbur","southern sandbur; Preemergence, 31 g ai/ha",90
same,"Plant response rating, Goosegrass","goosegrass; 16 g ai/ha, preemergence",20
same,Goosegrass plant response rating,"goosegrass; 62 g ai/ha, Preemergence",100
same,Goosegrass plant response rating,"goosegrass; 125 g ai/ha, preemergence",100
same,"Plant response rating, Goosegrass","goosegrass; Preemergence, 31 g ai/ha",85
